Test system: NOMO1
Experiment: cell viability relative to DMSO control; higher = less cytotoxic
Settings: 48 h
Summary of the method: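 Viability, reported as a per-plate percentage of DMSO wells with cell-free wells as background, came from CellTiter-Glo One luminescence. Reading took place after 48 h at 37°C. Before that, NOMO1 or SEM (500 cells/well) or P12-Ichikawa (1000 cells/well) leukemia cells, adapted for at least four passages in each medium, were seeded in 1536-well plates (5 μl) and pin-dosed with library compounds in DMSO, 47 μM to 0.79 nM over 11 threefold points.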

[1] = HPLM + 10% dialyzed FBS, 0.000781 µM
[2] = HPLM + 10% dialyzed FBS, 0.00234 µM
[3] = HPLM + 10% dialyzed FBS, 0.00702 µM
[4] = HPLM + 10% dialyzed FBS, 0.0211 µM
[5] = HPLM + 10% dialyzed FBS, 0.0632 µM
[6] = HPLM + 10% dialyzed FBS, 0.19 µM
[7] = HPLM + 10% dialyzed FBS, 0.569 µM
[8] = HPLM + 10% dialyzed FBS, 1.71 µM
[9] = HPLM + 10% dialyzed FBS, 5.12 µM
[10] = HPLM + 10% dialyzed FBS, 15.4 µM
[11] = HPLM + 10% dialyzed FBS, 46.1 µM
[12] = RPMI 5 mM glucose + 10% FBS, 0.000781 µM
[13] = RPMI 5 mM glucose + 10% FBS, 0.00234 µM
[14] = RPMI 5 mM glucose + 10% FBS, 0.00702 µM
[15] = RPMI 5 mM glucose + 10% FBS, 0.0211 µM
[16] = RPMI 5 mM glucose + 10% FBS, 0.0632 µM
[17] = RPMI 5 mM glucose + 10% FBS, 0.19 µM
[18] = RPMI 5 mM glucose + 10% FBS, 0.569 µM
[19] = RPMI 5 mM glucose + 10% FBS, 1.71 µM
[20] = RPMI 5 mM glucose + 10% FBS, 5.12 µM
[21] = RPMI 5 mM glucose + 10% FBS, 15.4 µM
[22] = RPMI 5 mM glucose + 10% FBS, 46.1 µM
[23] = RPMI 5 mM glucose + 10% dialyzed FBS, 0.000781 µM
[24] = RPMI 5 mM glucose + 10% dialyzed FBS, 0.00234 µM
[25] = RPMI 5 mM glucose + 10% dialyzed FBS, 0.00702 µM
[26] = RPMI 5 mM glucose + 10% dialyzed FBS, 0.0211 µM
[27] = RPMI 5 mM glucose + 10% dialyzed FBS, 0.0632 µM
[28] = RPMI 5 mM glucose + 10% dialyzed FBS, 0.19 µM
[29] = RPMI 5 mM glucose + 10% dialyzed FBS, 0.569 µM
[30] = RPMI 5 mM glucose + 10% dialyzed FBS, 1.71 µM
[31] = RPMI 5 mM glucose + 10% dialyzed FBS, 5.12 µM
[32] = RPMI 5 mM glucose + 10% dialyzed FBS, 15.4 µM
[33] = RPMI 5 mM glucose + 10% dialyzed FBS, 46.1 µM

SMILES	cell viability [1] [%]	cell viability [2] [%]	cell viability [3] [%]	cell viability [4] [%]	cell viability [5] [%]	cell viability [6] [%]	cell viability [7] [%]	cell viability [8] [%]	cell viability [9] [%]	cell viability [10] [%]	cell viability [11] [%]	cell viability [12] [%]	cell viability [13] [%]	cell viability [14] [%]	cell viability [15] [%]	cell viability [16] [%]	cell viability [17] [%]	cell viability [18] [%]	cell viability [19] [%]	cell viability [20] [%]	cell viability [21] [%]	cell viability [22] [%]	cell viability [23] [%]	cell viability [24] [%]	cell viability [25] [%]	cell viability [26] [%]	cell viability [27] [%]	cell viability [28] [%]	cell viability [29] [%]	cell viability [30] [%]	cell viability [31] [%]	cell viability [32] [%]	cell viability [33] [%]
Nc1nc(Cl)nc2c1ncn2[C@@H]1O[C@H](CO)[C@@H](O)[C@@H]1F	41.7	70.8	43.4	33.3	26.6	18.2	24.7	23.9	21.2	18.1	18.6	77.2	131	49	27.2	20	21.7	16.9	16.7	18.4	16	13.5	38.9	63.2	29.8	25.7	23	23.6	19.9	16.4	14.2	19.7	17.1
Nc1ncnc2c1c(-c1cccc(OCc3ccccc3)c1)cn2C1CC(CN2CCCC2)C1 (stereo unspecified)	113	133	124	124	141	134	119	90.4	94.2	78.1	36.2	–	–	–	–	–	–	–	–	–	–	–	–	–	–	–	–	–	–	–	–	–	–
COc1cc(C(=O)NS(=O)(=O)c2ccccc2C)ccc1Cc1cn(C)c2ccc(NC(=O)OC3CCCC3)cc12	66.5	66.3	75.8	91.5	79.7	77.8	87.3	87.3	87.1	83.8	31.1	77.7	86.9	79.6	80.1	77.6	86.5	82.4	87.6	85.2	80.4	18.9	68	84.5	76.4	92.9	88.8	99.7	83.5	81.6	86.1	81.2	6.79
OC[C@H]1O[C@@H]2[C@@H](OC\3=N\C(=N)\C=C/[N@@]23)[C@@H]1O	103	129	125	114	130	129	109	62.6	30.4	19.8	6.81	119	122	112	111	119	125	130	103	33.7	22	8.44	116	122	120	106	118	125	90.5	67.1	23.3	16.8	9.9
C[C@H]1COC/2=C1/C(=O)C(=O)C3=C4CCCC(C)(C)C4=CC=C23	114	131	121	116	154	146	137	163	158	132	134	–	–	–	–	–	–	–	–	–	–	–	123	129	120	136	135	129	148	156	141	134	151
CCOC(=O)/C=C/[C@H](C[C@@H]1CCNC1=O)NC(=O)[C@@H](CC(=O)[C@@H](NC(=O)c1cc(C)on1)C(C)C)Cc1ccc(F)cc1	–	–	–	–	–	–	–	–	–	–	–	–	–	–	–	–	–	–	–	–	–	–	119	124	143	118	132	118	130	131	144	155	125
Cc1ccc2c(c1)c1c(n2CCc2ccc(C)nc2)CCN(C)C1	126	115	111	130	128	130	141	134	141	153	127	–	–	–	–	–	–	–	–	–	–	–	–	–	–	–	–	–	–	–	–	–	–
CNC(=O)C1=CC=C(C)C(=C1)N2C(=C/C(=C(/Br)C2=O)OCC3=C(F)C=C(F)C=C3)\C	–	–	–	–	–	–	–	–	–	–	–	114	128	122	127	127	151	139	137	136	145	130	–	–	–	–	–	–	–	–	–	–	–
C[S+](=O)([O-])c1ccc(Oc2cc(F)cc(C#N)c2)c2c1[C@H](O)C(F)(F)C2	96.5	123	123	112	119	119	139	126	112	120	121	92.7	111	101	103	119	117	101	112	124	108	114	97.4	102	103	109	111	127	123	125	117	125	114
CC(C)(O)c1cc2nc(-c3cnc(N)nc3)nc(N3CCOCC3)c2s1	–	–	–	–	–	–	–	–	–	–	–	123	121	107	121	110	104	104	88.7	76.6	63.1	67.5	121	125	114	105	98.2	85.8	83.3	60.8	53.4	46.8	51.8
CCOc1ccc(Cc2cc([C@@H]3O[C@H](CO)[C@@H](O)[C@H](O)[C@H]3O)ccc2Cl)cc1	–	–	–	–	–	–	–	–	–	–	–	114	133	124	125	138	128	128	136	124	133	129	–	–	–	–	–	–	–	–	–	–	–

From the supplement of paper PMC11451515
